Test results as given in ChEMBL document CHEMBL4028852, “Design of a Chemical Probe for the Bromodomain and Plant Homeodomain Finger-Containing (BRPF) Family of Proteins” (J Med Chem, 2017).

Columns and labels:
[1] = target: T1, Peregrin (Homo sapiens) (UniProt P55201)
T1 sequence (whole entry): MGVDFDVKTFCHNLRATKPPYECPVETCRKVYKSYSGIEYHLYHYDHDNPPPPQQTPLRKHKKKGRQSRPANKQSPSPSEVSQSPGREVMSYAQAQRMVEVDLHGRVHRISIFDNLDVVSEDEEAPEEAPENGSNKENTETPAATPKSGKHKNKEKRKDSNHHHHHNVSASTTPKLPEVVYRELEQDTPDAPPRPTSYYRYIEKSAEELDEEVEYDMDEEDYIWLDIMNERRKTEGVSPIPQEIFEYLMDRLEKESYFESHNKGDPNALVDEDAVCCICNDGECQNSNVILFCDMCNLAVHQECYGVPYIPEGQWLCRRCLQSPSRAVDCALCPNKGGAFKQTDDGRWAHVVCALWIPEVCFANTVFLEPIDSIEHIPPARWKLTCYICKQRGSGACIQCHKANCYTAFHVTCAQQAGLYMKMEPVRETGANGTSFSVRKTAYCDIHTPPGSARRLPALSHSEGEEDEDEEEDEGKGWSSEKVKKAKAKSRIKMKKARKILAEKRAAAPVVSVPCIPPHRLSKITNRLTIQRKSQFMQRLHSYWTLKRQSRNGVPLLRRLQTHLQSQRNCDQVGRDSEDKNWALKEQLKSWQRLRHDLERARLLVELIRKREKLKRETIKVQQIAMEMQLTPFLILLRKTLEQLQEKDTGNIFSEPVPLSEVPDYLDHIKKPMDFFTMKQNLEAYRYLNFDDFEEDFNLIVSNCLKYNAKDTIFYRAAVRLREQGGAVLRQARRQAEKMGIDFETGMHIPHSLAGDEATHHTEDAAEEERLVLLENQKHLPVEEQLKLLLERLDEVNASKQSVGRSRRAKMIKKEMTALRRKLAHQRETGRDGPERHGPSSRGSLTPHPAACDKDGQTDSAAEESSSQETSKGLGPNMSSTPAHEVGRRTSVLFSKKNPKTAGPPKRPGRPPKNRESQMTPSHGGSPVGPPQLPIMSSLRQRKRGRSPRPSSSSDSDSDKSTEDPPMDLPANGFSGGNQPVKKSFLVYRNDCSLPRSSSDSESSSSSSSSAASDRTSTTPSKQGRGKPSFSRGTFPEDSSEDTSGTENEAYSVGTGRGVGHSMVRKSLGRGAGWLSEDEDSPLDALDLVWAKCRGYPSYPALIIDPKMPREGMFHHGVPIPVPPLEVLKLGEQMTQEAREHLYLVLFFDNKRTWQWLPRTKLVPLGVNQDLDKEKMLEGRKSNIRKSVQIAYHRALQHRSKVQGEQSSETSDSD
Description: Binding affinity to BRPF1 (unknown origin) assessed as change in melting temperature at 10 uM by differential scanning fluorimetry based thermal shift assay

[2] = target: T2, Peregrin (Homo sapiens, UniProt P55201); experiment: Inhibition of human BRPF1 (627 to 740 residues) expressed in Escherichia coli BL21 after 1 hr by BROMOscan assay
T2 sequence (P55201 whole entry): T1 sequence (whole entry)

[3] = target: Bromodomain-containing protein 4 (Homo sapiens, UniProt O60885); experiment: Inhibition of human BRD4 isoform long bromodomain 1 (44 to 168 residues) expressed in Escherichia coli BL21 after 1 hr by BROMOscan assay
[4] = Inhibition of cell proliferation of human HRA19 cells after 72 hrs by MTS assay; format: functional; conditions: HRA19, 72 h
[5] = system: NCI-H1703; experiment: Inhibition of cell proliferation of human NCI-H1703 cells after 72 hrs by MTS assay; format: functional; conditions: NCI-H1703, 72 h
[6] = Inhibition of cell proliferation of human RERF-LC-Sq1 cells after 72 hrs by MTS assay; format: functional; conditions: RERF-LC-Sq1, 72 h
[7] = system: DMS-114; experiment: Inhibition of cell proliferation of human DMS114 cells after 72 hrs by MTS assay; format: functional; conditions: DMS-114, 72 h
[8] = target: T3, Bromodomain-containing protein 1 (Homo sapiens, UniProt O95696); experiment: Inhibition of human BRPF2 (556 to 688 residues) expressed in Escherichia coli BL21 after 1 hr by BROMOscan assay
T3 sequence (O95696 whole entry): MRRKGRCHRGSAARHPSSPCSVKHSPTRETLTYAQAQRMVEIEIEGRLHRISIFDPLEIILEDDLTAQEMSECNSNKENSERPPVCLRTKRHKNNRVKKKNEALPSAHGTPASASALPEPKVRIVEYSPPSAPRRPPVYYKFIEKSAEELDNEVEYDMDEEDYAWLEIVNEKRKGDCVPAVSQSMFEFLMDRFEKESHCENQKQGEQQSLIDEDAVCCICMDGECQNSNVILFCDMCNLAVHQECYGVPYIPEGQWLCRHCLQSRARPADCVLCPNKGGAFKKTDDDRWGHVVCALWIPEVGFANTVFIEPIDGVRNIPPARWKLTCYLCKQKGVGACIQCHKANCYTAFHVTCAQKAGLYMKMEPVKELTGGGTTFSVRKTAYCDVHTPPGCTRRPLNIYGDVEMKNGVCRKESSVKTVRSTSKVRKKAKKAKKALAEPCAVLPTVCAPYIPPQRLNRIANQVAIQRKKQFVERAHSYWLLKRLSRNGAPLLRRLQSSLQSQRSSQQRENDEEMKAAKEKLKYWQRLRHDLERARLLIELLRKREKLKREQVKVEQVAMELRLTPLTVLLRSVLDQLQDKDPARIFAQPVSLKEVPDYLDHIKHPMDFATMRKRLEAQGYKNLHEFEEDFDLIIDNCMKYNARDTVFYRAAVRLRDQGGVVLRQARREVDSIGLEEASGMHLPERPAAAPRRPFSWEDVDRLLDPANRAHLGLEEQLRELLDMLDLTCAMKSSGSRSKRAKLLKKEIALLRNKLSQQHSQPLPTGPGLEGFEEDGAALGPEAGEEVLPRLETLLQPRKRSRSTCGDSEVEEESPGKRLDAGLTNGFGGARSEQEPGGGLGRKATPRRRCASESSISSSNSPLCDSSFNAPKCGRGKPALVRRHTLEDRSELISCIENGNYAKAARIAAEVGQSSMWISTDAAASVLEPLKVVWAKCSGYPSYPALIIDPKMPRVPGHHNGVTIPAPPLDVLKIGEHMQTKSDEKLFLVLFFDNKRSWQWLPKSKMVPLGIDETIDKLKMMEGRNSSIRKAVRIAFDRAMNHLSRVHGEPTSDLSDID

[9] = target: T4, Bromodomain and PHD finger-containing protein 3 (Homo sapiens, UniProt Q9ULD4); experiment: Inhibition of human BRPF3 (588 to 701 residues) expressed in Escherichia coli BL21 after 1 hr by BROMOscan assay
T4 sequence (Q9ULD4 whole entry): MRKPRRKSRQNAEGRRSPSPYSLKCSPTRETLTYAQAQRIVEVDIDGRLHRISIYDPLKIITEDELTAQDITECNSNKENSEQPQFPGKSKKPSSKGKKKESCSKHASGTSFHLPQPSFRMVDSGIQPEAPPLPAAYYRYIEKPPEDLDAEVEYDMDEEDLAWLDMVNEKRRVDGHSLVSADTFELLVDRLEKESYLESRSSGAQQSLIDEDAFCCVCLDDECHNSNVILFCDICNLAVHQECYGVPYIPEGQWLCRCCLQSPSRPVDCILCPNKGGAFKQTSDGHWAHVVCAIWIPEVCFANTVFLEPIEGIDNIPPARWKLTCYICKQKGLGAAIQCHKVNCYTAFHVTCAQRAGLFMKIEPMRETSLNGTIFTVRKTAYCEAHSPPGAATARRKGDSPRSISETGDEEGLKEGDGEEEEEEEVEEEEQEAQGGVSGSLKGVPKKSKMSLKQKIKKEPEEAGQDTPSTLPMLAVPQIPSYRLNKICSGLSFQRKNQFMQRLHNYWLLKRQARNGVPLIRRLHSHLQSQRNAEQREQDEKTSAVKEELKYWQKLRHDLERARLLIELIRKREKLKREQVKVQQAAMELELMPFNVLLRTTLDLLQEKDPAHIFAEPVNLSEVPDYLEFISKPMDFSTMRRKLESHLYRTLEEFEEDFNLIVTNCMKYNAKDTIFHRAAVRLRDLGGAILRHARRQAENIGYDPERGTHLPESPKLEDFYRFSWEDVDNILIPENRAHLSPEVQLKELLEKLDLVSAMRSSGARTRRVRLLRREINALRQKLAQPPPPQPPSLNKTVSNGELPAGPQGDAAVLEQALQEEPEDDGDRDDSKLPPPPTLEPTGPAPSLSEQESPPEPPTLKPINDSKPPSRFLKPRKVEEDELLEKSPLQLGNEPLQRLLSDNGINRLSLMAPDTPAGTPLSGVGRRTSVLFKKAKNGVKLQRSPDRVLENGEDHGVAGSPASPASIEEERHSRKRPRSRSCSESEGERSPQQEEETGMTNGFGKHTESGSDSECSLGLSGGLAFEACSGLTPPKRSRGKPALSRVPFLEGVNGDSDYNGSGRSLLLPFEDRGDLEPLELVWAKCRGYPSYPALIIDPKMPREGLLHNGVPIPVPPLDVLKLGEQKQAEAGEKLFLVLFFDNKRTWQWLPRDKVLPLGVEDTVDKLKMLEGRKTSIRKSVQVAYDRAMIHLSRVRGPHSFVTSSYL

[10] = target: T5, Bromodomain-containing protein 9 (Homo sapiens, UniProt Q9H8M2)
T5 sequence (Q9H8M2 whole entry): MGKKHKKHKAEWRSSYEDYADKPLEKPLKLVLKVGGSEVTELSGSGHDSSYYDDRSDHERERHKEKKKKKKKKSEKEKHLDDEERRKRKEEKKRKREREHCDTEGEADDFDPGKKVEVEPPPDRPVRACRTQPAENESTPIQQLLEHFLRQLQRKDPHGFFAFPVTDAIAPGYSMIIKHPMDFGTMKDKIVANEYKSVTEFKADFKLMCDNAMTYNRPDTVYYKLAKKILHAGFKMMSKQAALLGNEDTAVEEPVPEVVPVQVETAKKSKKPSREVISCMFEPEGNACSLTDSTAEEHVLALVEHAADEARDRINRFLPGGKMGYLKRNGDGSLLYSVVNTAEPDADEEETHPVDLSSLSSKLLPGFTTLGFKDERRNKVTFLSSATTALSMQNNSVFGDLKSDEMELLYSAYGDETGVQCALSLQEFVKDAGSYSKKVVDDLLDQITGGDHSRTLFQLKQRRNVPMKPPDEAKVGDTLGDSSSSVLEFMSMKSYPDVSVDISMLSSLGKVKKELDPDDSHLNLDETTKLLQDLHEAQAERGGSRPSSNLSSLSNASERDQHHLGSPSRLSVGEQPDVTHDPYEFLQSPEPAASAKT
Description: Inhibition of human BRD9 (130 to 259 residues) expressed in Escherichia coli BL21 after 1 hr by BROMOscan assay

Row | ΔTm [1] [°C] | SMILES | also measured
1 | 4.4 | Cn1c(=O)ccc2cc(NS(=O)(=O)c3cccc(C#N)c3)ccc21 | –
2 | 2.4 | Cn1c(=O)ccc2cc(NS(=O)(=O)c3ccccc3C#N)ccc21 | –
3 | 5.6 | CCc1cc2cc(NS(=O)(=O)c3ccc(C#N)cc3)ccc2n(C)c1=O | –
4 | 9.7 | Cc1cc2cc(NS(=O)(=O)c3ccc(C#N)cc3)ccc2n(C)c1=O | GI50 [4]: 15600 nM; GI50 [5]: > 30000 nM; GI50 [6]: 17100 nM; GI50 [7]: 16600 nM
5 | 5.6 | COc1cc2c(ccc(=O)n2C)cc1NS(=O)(=O)c1ccc(C#N)cc1 | IC50 [3]: > 10000 nM
6 | 5.2 | Cn1c(=O)ccc2cc(NS(=O)(=O)c3ccc(C#N)cc3)ccc21 | –
7 | 4.3 | Cc1cc(=O)n(C)c2ccc(NS(=O)(=O)c3ccc(C#N)cc3)cc12 | –
8 | 1.8 | CN(c1ccc2c(ccc(=O)n2C)c1)S(=O)(=O)c1ccc(C#N)cc1 | –
9 | 3.1 | Cn1c(=O)ccc2cc(S(=O)(=O)Nc3ccc(C#N)cc3)ccc21 | IC50 [9]: 2200 nM
10 | 5.3 | Cn1c(=O)ccc2cc(NS(=O)(=O)c3ccccc3)ccc21 | IC50 [10]: 2200 nM

Second part, the compound before the results:

Row | SMILES | ΔTm [1] [°C] | also measured
11 | COc1cc2c(ccc(=O)n2C)cc1N(C)S(=O)(=O)c1ccc(C#N)cc1 | – | IC50 [2]: 1000 nM
12 | Cn1c(=O)ccc2cc(NS(C)(=O)=O)ccc21 | 1.4 | –
13 | CCc1cc2cc(NS(=O)(=O)c3ccc(C#N)cc3)ccc2n(CC)c1=O | – | IC50 [3]: > 100000 nM
14 | COc1cc(C#N)ccc1S(=O)(=O)N(C)c1ccc2c(c1)cc(C)c(=O)n2C | 7.1 | –
15 | Cn1c(=O)ccc2cc(NS(=O)(=O)C3CC3)ccc21 | 1.9 | –
16 | COc1cc2c(cc1NS(=O)(=O)c1ccc(C#N)cc1)cc(C)c(=O)n2C | 8.8 | –
17 | COc1cc(C#N)ccc1S(=O)(=O)N(c1ccc2c(c1)cc(C)c(=O)n2C)C(C)C | – | IC50 [2]: 160 nM
18 | COc1cc(C#N)ccc1S(=O)(=O)Nc1cc(F)c2c(c1)cc(C)c(=O)n2C | 6.8 | IC50 [2]: 12 nM; IC50 [8]: 510 nM; IC50 [9]: 10000 nM
19 | COc1cc2c(cc1NS(=O)(=O)c1ccc(C#N)cc1OC)cc(C)c(=O)n2C | 12.7 | IC50 [3]: 1700 nM
20 | COc1cc2c(cc1NS(=O)(=O)c1ccccc1)cc(C)c(=O)n2C | 9.4 | –
21 | COc1ccccc1S(=O)(=O)Nc1ccc2c(c1)cc(C)c(=O)n2C | 10.2 | –
22 | CC(C)c1cc2cc(NS(=O)(=O)c3ccc(C#N)cc3)ccc2n(C)c1=O | – | IC50 [2]: 870 nM; IC50 [8]: 14000 nM; IC50 [9]: 16000 nM
23 | COc1cc2c(ccc(=O)n2C)cc1NS(=O)(=O)c1ccccc1 | 6.3 | –
24 | CCc1cc2cc(NS(=O)(=O)c3ccc(C#N)cc3OC)ccc2n(C)c1=O | 8 | IC50 [2]: 93 nM
25 | CCS(=O)(=O)Nc1ccc2c(ccc(=O)n2C)c1 | 1.8 | –
26 | Cn1c(=O)ccc2cc(NS(=O)(=O)C3CCCCC3)ccc21 | 3.9 | –
27 | CC(C)S(=O)(=O)Nc1ccc2c(ccc(=O)n2C)c1 | 2.2 | –
28 | CCc1cc2cc(NS(=O)(=O)c3ccc(C#N)cc3OC)ccc2n(CC)c1=O | – | IC50 [2]: 250 nM; IC50 [8]: 4400 nM; IC50 [9]: 4600 nM
29 | CCN(c1ccc2c(c1)cc(C)c(=O)n2C)S(=O)(=O)c1ccc(C#N)cc1OC | – | IC50 [2]: 110 nM
